Source: article PMC10247784, “Physiological activation of human and mouse bitter taste receptors by bile acids” (Communications Biology, 2023)

Biological target: T1, human TAS2R4 (Homo sapiens, UniProt Q9NYW5)
T1 construct: expressed in transfected cells; host or cells: HEK293T-Gα16gust44
T1 sequence (Q9NYW5 1-299): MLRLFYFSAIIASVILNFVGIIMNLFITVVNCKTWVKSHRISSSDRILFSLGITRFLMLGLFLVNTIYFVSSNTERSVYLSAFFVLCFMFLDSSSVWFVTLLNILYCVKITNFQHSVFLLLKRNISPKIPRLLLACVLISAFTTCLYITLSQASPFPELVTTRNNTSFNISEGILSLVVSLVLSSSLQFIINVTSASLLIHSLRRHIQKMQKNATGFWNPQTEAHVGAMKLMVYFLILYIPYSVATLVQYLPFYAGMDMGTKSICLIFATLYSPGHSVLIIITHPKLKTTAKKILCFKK
Test: Calcium imaging assay (FLIPR), HEK293T-Gα16gust44 cells transfected with human TAS2R4
Format: cell-based
Experimental: This set of bile acids was chosen because of their commercial availability in high purities, their diversity within the class of bile acids and their previous detection and quantitation in human blood. Stock solutions were prepared in DMSO.
As basal growth medium for the HEK293T-Gα16gust44 cell line[17],[59] served Dulbecco’s modified eagle medium (DMEM) (Thermo Fisher Scientific, Darmstadt, Germany) supplemented with 10 % fetal bovine serum (Sigma-Aldrich, Steinheim, Germany), 2 mM L-glutamine (Sigma-Aldrich, Steinheim, Germany), 100 units/ml penicillin (Sigma Aldrich, Steinheim, Germany) and 100 µg/ml streptomycin (Sigma Aldrich, Steinheim, Germany). Growth conditions were 37 °C, 5 % CO2 and saturated air-humidity[60].
HEK293T-Gα16gust44 cells were seeded on poly-D-lysine (10 µg/ml) coated 96-well plates to reach a confluence of 40-60 % the next day. For transient transfection 150 ng of plasmid DNA containing the receptor of interest and 0.3 µl lipofectamine 2000 (Thermo Fisher Scientific, Darmstadt, Germany) per well were used and transfection took place according to the manual of lipofectamine 2000. […] The empty vector DNA (mock) was transfected as negative control[14],[41].
Cells were loaded using the calcium-sensitive fluorescent dye Fluo-4-AM (Abcam, Cambridge, Great Britain) in the presence of 2.5 mM probenecid (Sigma-Aldrich, Steinheim, Germany) the day after transfection[13],[41]. 1 h after loading, cells were washed with C1 buffer using a BioTek Cell Washer, incubated in the dark for half an hour and washed again. For automated agonist application and measurement of fluorescence changes, a FLIPR^TETRA device (Molecular Devices, San José, United States) was used. Viability of cells was tested by application of 100 nM Somatostatin 14 (Bachem, Bubendorf, Switzerland)[42].
Measured data were negative control corrected by subtracting the signal of the mock-transfected cells and exported to Microsoft Excel using the FLIPR software ScreenWorks 4.2. In Microsoft Excel software, standardization of maximum fluorescence intensities to the basal fluorescence and normalization to the buffer-only control was done to calculate the relative fluorescence changes (ΔF/F).
Initial screening experiments performed in duplicate wells were confirmed by at least one replication and representative traces were selected for display. All dose-response relationships were determined by three independent experiments (biological replicates) performed in duplicates (technical replicates). Threshold concentrations, defined as lowest substance concentrations leading to statistically significant elevated fluorescence changes in receptor-transfected cells compared with empty vector-transfected cells, were determined using SigmaPlot with Student’s t-test to evaluate statistical significance (p < 0.01).

Structure (SMILES): C[C@H](CCC(=O)NCC(=O)O)[C@H]1CC[C@H]2[C@@H]3[C@H](O)C[C@@H]4C[C@H](O)CC[C@]4(C)[C@H]3C[C@H](O)[C@]12C [Glycocholic Acid, glycocholic acid]
- RLU, fluorescence trace (Time (s) 92.781 (TCA, TLCA: 92.782)): 713.242 RLU
- RLU, fluorescence trace (Time (s) 94.781 (TCA, TLCA: 94.782)): 703.281 RLU
- RLU, fluorescence trace (Time (s) 96.781 (TCA, TLCA: 96.782)): 696.734 RLU
- RLU, fluorescence trace (Time (s) 98.781 (TCA, TLCA: 98.782)): 653.577 RLU
- RLU, fluorescence trace (Time (s) 100.781 (TCA, TLCA: 100.782)): 678.663 RLU
- RLU, fluorescence trace (Time (s) 102.781 (TCA, TLCA: 102.782)): 623.965 RLU
- RLU, fluorescence trace (Time (s) 104.781 (TCA, TLCA: 104.782)): 624.137 RLU
- RLU, fluorescence trace (Time (s) 106.781 (TCA, TLCA: 106.782)): 630.047 RLU
- RLU, fluorescence trace (Time (s) 108.781 (TCA, TLCA: 108.782)): 571.666 RLU
- RLU, fluorescence trace (Time (s) 110.781 (TCA, TLCA: 110.782)): 598.289 RLU
- RLU, fluorescence trace (Time (s) 112.781 (TCA, TLCA: 112.782)): 583.918 RLU
- RLU, fluorescence trace (Time (s) 114.781 (TCA, TLCA: 114.782)): 556.25 RLU
- RLU, fluorescence trace (Time (s) 116.781 (TCA, TLCA: 116.782)): 588.773 RLU
- RLU, fluorescence trace (Time (s) 118.781 (TCA, TLCA: 118.782)): 548.501 RLU
- RLU, fluorescence trace (Time (s) 120.781 (TCA, TLCA: 120.782)): 507.386 RLU
- RLU, fluorescence trace (Time (s) 122.781 (TCA, TLCA: 122.782)): 507.852 RLU
- RLU, fluorescence trace (Time (s) 124.781 (TCA, TLCA: 124.782)): 509.201 RLU
- RLU, fluorescence trace (Time (s) 126.781 (TCA, TLCA: 126.782)): 489.381 RLU
- RLU, fluorescence trace (Time (s) 128.781 (TCA, TLCA: 128.782)): 446.993 RLU
- RLU, fluorescence trace (Time (s) 130.781 (TCA, TLCA: 130.782)): 463.894 RLU
- RLU, fluorescence trace (Time (s) 132.781 (TCA, TLCA: 132.782)): 448.798 RLU
- RLU, fluorescence trace (Time (s) 134.781 (TCA, TLCA: 134.782)): 427.428 RLU
- RLU, fluorescence trace (Time (s) 136.781 (TCA, TLCA: 136.782)): 402.196 RLU
- RLU, fluorescence trace (Time (s) 137.547): 379.772 RLU
- RLU, fluorescence trace (Time (s) 143.547): 379.834 RLU
- RLU, fluorescence trace (Time (s) 149.547): 308.948 RLU
- RLU, fluorescence trace (Time (s) 155.547): 318.726 RLU
- RLU, fluorescence trace (Time (s) 161.547): 303.241 RLU
- RLU, fluorescence trace (Time (s) 167.547): 312.32 RLU
- RLU, fluorescence trace (Time (s) 173.547): 281.168 RLU
- RLU, fluorescence trace (Time (s) 179.547): 242.535 RLU
- RLU, fluorescence trace (Time (s) 185.547): 225.911 RLU
- RLU, fluorescence trace (Time (s) 191.547): 214.607 RLU
- RLU, fluorescence trace (Time (s) 197.547): 221.087 RLU
- RLU, fluorescence trace (Time (s) 203.547): 189.795 RLU
- RLU, fluorescence trace (Time (s) 209.547): 203.53 RLU
- RLU, fluorescence trace (Time (s) 215.547): 197.074 RLU
- RLU, fluorescence trace (Time (s) 221.547): 173.704 RLU
- RLU, fluorescence trace (Time (s) 227.547): 160.915 RLU
- RLU, fluorescence trace (Time (s) 233.547): 142.108 RLU
- RLU, fluorescence trace (Time (s) 239.547): 141.876 RLU
- RLU, fluorescence trace (Time (s) 245.547): 156.883 RLU
- RLU, fluorescence trace (Time (s) 293.547): 127.131 RLU
- RLU, fluorescence trace (Time (s) 299.547): 134.948 RLU
- RLU, fluorescence trace (Time (s) 305.547): 119.109 RLU
- RLU, fluorescence trace (Time (s) 311.547): 130.712 RLU
- RLU, fluorescence trace (Time (s) 317.547): 94.0562 RLU
- RLU, fluorescence trace (Time (s) 323.547): 123.872 RLU
- RLU, fluorescence trace (Time (s) 329.547): 117.665 RLU
- RLU, fluorescence trace (Time (s) 335.547): 137.018 RLU
- RLU, fluorescence trace (Time (s) 341.547): 127.876 RLU
- RLU, fluorescence trace (Time (s) 347.547): 133.973 RLU
- RLU, fluorescence trace (Time (s) 353.547): 116.889 RLU
- RLU, fluorescence trace (Time (s) 359.547): 102.962 RLU
- Activation threshold concentration TAS2R4 (lowest concentration with significantly increased fluorescence vs empty vector (p < 0.01)): 30 µM
